Experimental data reported in patent US20260374754A1, “N-((ISOQUINOLIN-6-YL)METHYL)-1H-PYRAZOLE-4-CARBOXAMIDE DERIVATIVES AS PLASMA KALLIKREIN INHIBITORS FOR THE TREATMENT OF HEREDITARY ANGIODEMA” (Takeda Pharmaceutical Company Limited, priority 2022, published 2026).
Structures can show the parent of a compound that is named as a salt.

Columns and labels:
[1] = molecular target: human activated kallikrein enzyme (Homo sapiens, UniProt P03952); test: Inhibition of human activated plasma kallikrein, fluorogenic PFR-AMC substrate, 500 pM enzyme format; format: biochemical; settings: 500 pM activated kallikrein; 300 μM PFR-AMC; 30 min preincubation; 10 min room temperature; pH 7.5; read-out: Primary Dose Response Assay: Average EC50
Sequence of human activated kallikrein enzyme (P03952 391-638 limits assumed): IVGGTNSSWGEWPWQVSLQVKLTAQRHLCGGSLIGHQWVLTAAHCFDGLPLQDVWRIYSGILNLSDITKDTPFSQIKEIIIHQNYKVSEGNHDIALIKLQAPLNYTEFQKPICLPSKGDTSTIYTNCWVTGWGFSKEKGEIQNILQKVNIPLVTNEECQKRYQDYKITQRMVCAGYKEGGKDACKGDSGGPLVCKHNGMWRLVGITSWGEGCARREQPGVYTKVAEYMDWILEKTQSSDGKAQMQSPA
Sequence of human activated kallikrein enzyme (P03952 20-390 partner limits assumed): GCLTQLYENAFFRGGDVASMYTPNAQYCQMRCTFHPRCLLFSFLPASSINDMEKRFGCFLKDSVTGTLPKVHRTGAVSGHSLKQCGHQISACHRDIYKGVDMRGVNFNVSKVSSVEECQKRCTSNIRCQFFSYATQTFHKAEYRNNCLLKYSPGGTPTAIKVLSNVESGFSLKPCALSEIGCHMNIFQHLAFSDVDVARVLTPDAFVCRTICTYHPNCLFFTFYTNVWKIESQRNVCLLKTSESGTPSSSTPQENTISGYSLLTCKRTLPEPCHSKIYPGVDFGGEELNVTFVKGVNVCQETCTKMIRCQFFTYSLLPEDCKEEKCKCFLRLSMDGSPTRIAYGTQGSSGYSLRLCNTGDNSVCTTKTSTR
Method in brief: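 Using fluorogenic PFR-AMC at 300 μM, cleavage by 500 pM human activated kallikrein ran 10 min at room temperature, read at 460 nm emission (380 nm excitation). Enzyme and compounds were first preincubated 30 min in 20 mM Tris pH 7.5, 150 mM NaCl, 1 mM EDTA, 0.1% PEG-400, 0.1% Triton X-100.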

[2] = molecular target: T1, plasma kallikrein (Homo sapiens, UniProt P03952); test: Neat Human Plasma Assay (Fluorogenic Peptide), contact pathway-activated (FXIIa) plasma; format: biochemical; settings: human citrated plasma 78% final; 10 nM human FXIIa; PFR-AMC substrate; 5 minutes; room temperature
T1 construct: PFR-AMC substrate
T1 sequence (P03952 20-638): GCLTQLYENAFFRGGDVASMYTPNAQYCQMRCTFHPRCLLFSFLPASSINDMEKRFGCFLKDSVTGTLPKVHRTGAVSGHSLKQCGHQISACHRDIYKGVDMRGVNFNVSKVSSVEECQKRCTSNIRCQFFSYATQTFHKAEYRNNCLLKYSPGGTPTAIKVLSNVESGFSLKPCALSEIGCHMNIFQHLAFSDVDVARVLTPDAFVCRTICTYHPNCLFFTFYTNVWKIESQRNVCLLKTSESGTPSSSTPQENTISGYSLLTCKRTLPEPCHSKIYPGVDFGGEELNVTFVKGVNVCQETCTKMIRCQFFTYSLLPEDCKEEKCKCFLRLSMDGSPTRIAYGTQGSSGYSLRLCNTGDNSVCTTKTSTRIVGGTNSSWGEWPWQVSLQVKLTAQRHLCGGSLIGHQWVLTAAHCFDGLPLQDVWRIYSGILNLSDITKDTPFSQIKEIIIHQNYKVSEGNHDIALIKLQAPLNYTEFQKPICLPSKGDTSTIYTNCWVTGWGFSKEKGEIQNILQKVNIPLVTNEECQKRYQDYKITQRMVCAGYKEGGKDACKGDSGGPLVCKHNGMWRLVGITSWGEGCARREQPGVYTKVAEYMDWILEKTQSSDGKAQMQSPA
Protocol: To analyze inhibition of plasma kallikrein in an ex vivo setting, the potency of compounds was measure in contact pathway-activated plasma assays. In a fluorogenic peptide substrate assay, test compounds dissolved in DMSO were added to sodium citrate collected human or rat plasma in a 96-well microplate. Alternatively, citrated plasma was collected from rats administered the compounds orally or by IV. 10 nM of human FXIIa (Enzyme Research Laboratories) diluted in PKa buffer (20 mM Tris-HCl, pH 7.5, 150 mM NaCl, 1 mM EDTA, 0.1% PEG-8000, and 0.1% Triton X-100) was added to the plasma, followed by the […] of the profluorescent, synthetic plasma kallikrein substrate PFR-AMC (also diluted in PKa buffer). Final plasma concentration in the reaction was 78%. Fluorescence was immediately monitored by excitation/emission wavelengths of 360 nm/480 nm respectively over a period of 5 minutes in a microplate reader. The resulting linear increase in fluorescence emission (reflecting PKa proteolysis of PFR-AMC substrate) was fit to extract a proteolytic rate (fluorescent units over time), and this rate was subsequently plotted against compound inhibitor concentration. Resulting plots were fit to a standard 4-parameter IC50/IC90 equation to determine min/max values, IC50/90, and slope. All experimental steps were performed at room temperature.

Row | Compound | EC50 [1] [nM] | IC90 [2] [nM]
1 | Cc1cc2c(N)nccc2c(C)c1CNc1cc(OCc2ccc3ncc(Cl)cc3c2)ncn1 [Example 373, 6-(((6-((3-chloroquinolin-6-yl)methoxy)pyrimidin-4-yl)amino)methyl)-5,7-dimethylisoquinolin-1-amine formic acid salt] | 1 to 10 | > 5000
2 | Cc1cc2c(N)nccc2c(C)c1CNc1cc(OCc2nc3ncc(C4CC4)cn3n2)ncn1 [Example 384, 6-(((6-((6-cyclopropyl-[1,2,4]triazolo[1,5-a]pyrimidin-2-yl)methoxy)pyrimidin-4-yl)amino)methyl)-5,7-dimethylisoquinolin-1-amine] | 1 to 10 | 1000 to 5000
3 | Cc1cc2c(N)nccc2c(C)c1CNc1cc(OCc2ccc3ncc(C4CC4)cc3c2)ncn1 [Example 386, 6-(((6-((3-cyclopropylquinolin-6-yl)methoxy)pyrimidin-4-yl)amino)methyl)-5,7-dimethylisoquinolin-1-amine] | 1 to 10 | > 5000
4 | Cc1cc2c(N)nccc2c(C)c1CNc1cc(OCc2cnc3ccc(C4CC4)cc3c2)ncn1 [Example 387, 6-(((6-((6-cyclopropylquinolin-3-yl)methoxy)pyrimidin-4-yl)amino)methyl)-5,7-dimethylisoquinolin-1-amine] | 1 to 10 | > 5000
5 | Cc1cc2c(N)nccc2c(C)c1CNc1cc(OCc2nc3ccc(C4CC4)cn3n2)ncn1 [Example 388, 6-(((6-((6-cyclopropyl-[1,2,4]triazolo[1,5-a]pyridin-2-yl)methoxy)pyrimidin-4-yl)amino)methyl)-5,7-dimethylisoquinolin-1-amine] | 1 to 10 | > 5000
6 | Cc1c(CNc2cc(OCc3cn4cc(C5CC5)ccc4n3)ncn2)c(C2(C)CC2)cc2c(N)nccc12 [Example 390, 6-(((6-((6-cyclopropylimidazo[1,2-a]pyridin-2-yl)methoxy)pyrimidin-4-yl)amino)methyl)-5-methyl-7-(1-methylcyclopropyl)isoquinolin-1-amine] | < 1 | > 5000
7 | Cc1cc2c(N)nccc2c(C)c1CNc1cc(OCc2nc3ccc(C4CC4)nn3n2)ncn1 [Example 391, 6-(((6-((6-cyclopropyl-[1,2,4]triazolo[1,5-b]pyridazin-2-yl)methoxy)pyrimidin-4-yl)amino)methyl)-5,7-dimethylisoquinolin-1-amine] | 10 to 100 | > 5000
8 | Cc1cc2c(N)nccc2c(C)c1CNc1nccc2nn(Cc3cn4cc(C5CC5)cnc4n3)cc12 [Example 392, 6-(((2-((6-cyclopropylimidazo[1,2-a]pyrimidin-2-yl)methyl)-2H-pyrazolo[4,3-c]pyridin-4-yl)amino)methyl)-5,7-dimethylisoquinolin-1-amine] | < 1 | ≤ 1000
9 | Cc1cc2c(N)nccc2c(C)c1CNc1cc(OCc2cc(C#N)c3ncc(Cl)cc3c2)ncn1 [Example 398, 6-(((6-(((1-amino-5,7-dimethylisoquinolin-6-yl)methyl)amino)pyrimidin-4-yl)oxy)methyl)-3-chloroquinoline-8-carbonitrile] | 1 to 10 | > 5000
10 | Cc1cc2c(N)nccc2c(C)c1CNc1cc(OCc2cc3cc(C4CC4)ccn3n2)ncn1 [Example 400, 6-(((6-((5-cyclopropylpyrazolo[1,5-a]pyridin-2-yl)methoxy)pyrimidin-4-yl)amino)methyl)-5,7-dimethylisoquinolin-1-amine] | 1 to 10 | > 5000
11 | Cc1cc2c(N)nccc2c(C)c1CNc1cc(OCc2cc(C(N)=O)c3ncc(Cl)cc3c2)ncn1 [Example 401, 6-(((6-(((1-amino-5,7-dimethylisoquinolin-6-yl)methyl)amino)pyrimidin-4-yl)oxy)methyl)-3-chloroquinoline-8-carboxamide] | 1 to 10 | 1000 to 5000
12 | Cc1cc2c(N)nccc2c(C)c1CNc1cc(Cc2cn3cc(C4CC4)ccc3n2)ncn1 [Example 403, 6-(((6-((6-cyclopropylimidazo[1,2-a]pyridin-2-yl)methyl)pyrimidin-4-yl)amino)methyl)-5,7-dimethylisoquinolin-1-amine] | < 1 | 1000 to 5000
13 | Cc1cnc2ccc(COc3cnnc(NCc4c(C)cc5c(N)nccc5c4C)c3)cc2c1 [Example 416, 5,7-dimethyl-6-(((5-((3-methylquinolin-6-yl)methoxy)pyridazin-3-yl)amino)methyl)isoquinolin-1-amine] | < 1 | 1000 to 5000
14 | Cc1cc2c(N)nccc2c(C)c1CNc1cc(OCc2ccc3ncc(C4CC4)cc3c2)cnn1 [Example 422, 6-(((5-((3-cyclopropylquinolin-6-yl)methoxy)pyridazin-3-yl)amino)methyl)-5,7-dimethylisoquinolin-1-amine] | < 1 | 1000 to 5000

Other lines, results leading:

Row | EC50 [1] [nM] | IC90 [2] [nM] | Compound
15 | < 1 | 1000 to 5000 | Cc1cc2c(N)nccc2c(C)c1CNc1cc(OCc2cn3cc(C4CC4)ccc3n2)cnn1 [Example 426, 6-(((5-((6-cyclopropylimidazo[1,2-a]pyridin-2-yl)methoxy)pyridazin-3-yl)amino)methyl)-5,7-dimethylisoquinolin-1-amine, formic acid salt]
16 | < 1 | 1000 to 5000 | Cc1cc2c(N)nccc2c(C)c1CNc1cc(OCc2ccc(Cn3cccn3)cc2)cnn1 [Example 432, 6-(((5-((4-((1H-pyrazol-1-yl)methyl)benzyl)oxy)pyridazin-3-yl)amino)methyl)-5,7-dimethylisoquinolin-1-amine]
17 | < 1 | 1000 to 5000 | Cc1cc2c(N)nccc2c(C)c1CNc1cc(NCc2ccc(Cn3cccn3)cc2)c(C(F)(F)F)nn1 [Example 451, N^5-(4-((1H-pyrazol-1-yl)methyl)benzyl)-N^3-((1-amino-5,7-dimethylisoquinolin-6-yl)methyl)-6-(trifluoromethyl)pyridazine-3,5-diamine]
18 | 1 to 10 | 1000 to 5000 | Cc1cc2c(N)nccc2c(C)c1CNc1nccn2nc(Cc3cn4cc(C5CC5)ccc4n3)nc12 [Example 498, 6-(((2-((6-cyclopropylimidazo[1,2-a]pyridin-2-yl)methyl)-[1,2,4]triazolo[1,5-a]pyrazin-8-yl)amino)methyl)-5,7-dimethylisoquinolin-1-amine]
19 | < 1 | ≤ 1000 | Cc1cc2c(N)nccc2c(C)c1CNc1cc2c(cn1)ncn2Cc1cn2cc(C3CC3)ccc2n1 [Example 499, 6-(((1-((6-cyclopropylimidazo[1,2-a]pyridin-2-yl)methyl)-1H-imidazo[4,5-c]pyridin-6-yl)amino)methyl)-5,7-dimethylisoquinolin-1-amine]
20 | < 1 | > 5000 | Cc1cc2c(N)nccc2c(C)c1CNc1nccc2nc(Cc3cn4cc(C5CC5)ccc4n3)[nH]c12 [Example 500, 6-(((2-((6-cyclopropylimidazo[1,2-a]pyridin-2-yl)methyl)-3H-imidazo[4,5-c]pyridin-4-yl)amino)methyl)-5,7-dimethylisoquinolin-1-amine]
21 | < 1 | ≤ 1000 | Cc1cc2c(N)nccc2c(C)c1CNc1cc2c(cn1)nnn2Cc1cn2cc(C3CC3)ccc2n1 [Example 501, 6-(((1-((6-cyclopropylimidazo[1,2-a]pyridin-2-yl)methyl)-1H-[1,2,3]triazolo[4,5-c]pyridin-6-yl)amino)methyl)-5,7-dimethylisoquinolin-1-amine]
22 | < 1 | ≤ 1000 | Cc1cc2c(N)nccc2c(C)c1CNc1cc2c(cn1)ncn2Cc1nc2ccc(C3CC3)cn2n1 [Example 503, 6-(((1-((6-cyclopropyl-[1,2,4]triazolo[1,5-a]pyridin-2-yl)methyl)-1H-imidazo[4,5-c]pyridin-6-yl)amino)methyl)-5,7-dimethylisoquinolin-1-amine]
23 | < 1 | ≤ 1000 | Cc1cc2c(N)nccc2c(C)c1CNc1cc2c(cn1)ncn2Cc1cc2cc(C3CC3)cnc2s1 [Example 504, 6-(((1-((5-cyclopropylthieno[2,3-b]pyridin-2-yl)methyl)-1H-imidazo[4,5-c]pyridin-6-yl)amino)methyl)-5,7-dimethylisoquinolin-1-amine]
24 | 1 to 10 | > 5000 | Cc1cc2c(N)nccc2c(C)c1CNc1cc(OCc2cc3cc(C4CC4)cc(CCC(C)(C)O)n3n2)ncn1 [Example 508, 4-(2-(((6-(((1-amino-5,7-dimethylisoquinolin-6-yl)methyl)amino)pyrimidin-4-yl)oxy)methyl)-5-cyclopropylpyrazolo[1,5-a]pyridin-7-yl)-2-methylbutan-2-ol]
25 | < 1 | 1000 to 5000 | Cc1cc2c(N)nccc2c(C)c1CNc1cc(OCc2cc3cc(C4CC4)cc(CC(C)(C)C(N)=O)n3n2)ncn1 [Example 509, 3-(2-(((6-(((1-amino-5,7-dimethylisoquinolin-6-yl)methyl)amino)pyrimidin-4-yl)oxy)methyl)-5-cyclopropylpyrazolo[1,5-a]pyridin-7-yl)-2,2-dimethylpropanamide]
